Data on 2 compounds can be found in patent publication US8673578B2, “Methods of identifying antagonists of the hTAS2R46 bitter taste receptor” (Deutsches Institut für Ernahrungsforschung Potsdam-Rehbrücke, priority 2009, dated 2014).

For one assay, the target named is T1, hTAS2R46 (Homo sapiens, UniProt P59540).
T1 construct: expressed in transfected cells; host or cells: HEK293T cells stably expressing chimeric Gα16gust44, transient transfection
T1 sequence (P59540 1-309): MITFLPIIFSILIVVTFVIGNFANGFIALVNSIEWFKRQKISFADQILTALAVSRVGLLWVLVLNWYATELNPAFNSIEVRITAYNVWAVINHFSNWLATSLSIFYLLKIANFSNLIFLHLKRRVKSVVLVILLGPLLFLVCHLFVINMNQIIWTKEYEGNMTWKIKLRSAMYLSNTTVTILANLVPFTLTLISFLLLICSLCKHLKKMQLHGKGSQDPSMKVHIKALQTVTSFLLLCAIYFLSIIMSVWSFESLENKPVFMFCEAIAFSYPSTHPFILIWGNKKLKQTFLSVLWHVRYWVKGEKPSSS
The assay can be described thus: calcium imaging (FLIPR), effect on agonist-dependent hTAS2R activation. The class given is cell-based. The following applies: for agonist-dependent response of hTAS2R46-expressing cells on coapplication: 100 μM test substance, agonist picrotoxinin 300 μM (EC90), agonist alone = 100%. From the text:
(§1) Human TAS2R cDNAs were cloned into pcDNA5/FRT (Invitrogen, San Diego, Calif.). For adequate plasma membrane targeting, receptor cDNA was fused to the aminoterminal sequence of the rat somatostatin type 3 receptor at the aminoterminus of the recombinant protein (Bufe, B., T. Hofmann, et al. (2002) Nat Genet. 32(3): 397-401). For immunological detection, the Herpes simplex Glycoprotein D epitope was supplemented at the carboxyterminus of the recombinant protein (Bufe et al., supra). Receptor constructs were transiently transfected into HEK293T cells stably expressing the chimeric G protein subunit Gα16gust44 (Ueda, T., S. Ugawa, et al. (2003) J Neurosci 23(19): 7376-80) using Lipofectamine 2000 (Invitrogen, San Diego, Calif.) in 96-well plates.
(§2) Calcium Imaging experiments were performed 24 h after transfection using a Fluorometric Imaging Plate Reader (FLIPR, Molecular Devices, Munich, Germany) as previously described (Bufe et al., supra). Taste active compounds were ordered from Sigma (Sigma-Aldrich, Taufkirchen, Germany). Absinthin, 3β hydroxy dihydro costunolide and 3β hydroxy pelenolide were kindly provided by Giovanni Appendino (Novara, Italy). Test substances were directly dissolved in C1 buffer (130 mM NaCl, 10 mM Na-Hepes, 10 mM Glucose, 5 mM KCl, 2 mM CaCl2, pH 7.4) or in DMSO, respectively. DMSO stocks were further diluted in C1 buffer not exceeding a final DMSO concentration of 1% on the cells. For the investigation of antagonistic effects, test substances were premixed. Agonists were applied at concentrations corresponding to EC90, except where indicated otherwise (Table 2). Data were collected from 3 independent experiments performed in quadruplicates and processed with SigmaPlot (SPSS, Chicago, Ill.). Fluorescence signals after application of test substances were corrected for and normalized to background fluorescence (ΔF/F═(F−F0)/F0), and baseline noise was subtracted. Calculation of dose-response curves was done by nonlinear regression using the function f(y)=((a−d)/(1+(x/EC50)^nH)+d).
To test 3β hydroxy dihydro costunolide and 3β hydroxy pelenolide for antagonistic or enhancing effects on hTAS2R activation, transfected cells were stimulated with cognate agonist bitter substances at EC90 concentrations (Table 2) without 3β hydroxy dihydro costunolide and 3β hydroxy pelenolide. The cellular responses after application of the agonist alone were set to 100%, responses obtained after coapplication of agonists and 100 μM 3β hydroxy dihydro costunolide or 100 μM 3β hydroxy pelenolide are shown relative to this value (FIG. 4).
Next we determined concentrations of half-maximal inhibition of TAS2R46. FIG. 5 illustrates the concentration-inhibition curves of TAS2R46 activated by picrotoxinin in the presence of various concentrations of 3β hydroxy dihydro costunolide or 3β hydroxy pelenolide. […] In agreement with the data described above the costunolide analog appears to be more potently inhibiting TAS2R46 than the pelenolide analog. […] As expected 3β hydroxy pelenolide has to be employed at ˜6 fold higher concentrations than 3β hydroxy dihydro costunolide to achieve 50% receptor inhibition.
Next, we established concentration-response curves for strychnine at TAS2R46 in the presence of various concentrations of 3β hydroxy dihydro costunolide.
Finally, the impact of chemical modifications on the antagonistic properties of 3β hydroxy dihydro costunolide on hTAS2R46-expressing cells was studied. Derivatives of 3β hydroxy dihydro costunolide with site-directed modifications at C3 and C11 were generated (FIG. 7A) These derivatives were tested for activation or inhibition of hTAS2R46-expressing cells in the absence or presence of the agonist strychnine (3 μM) and half-maximum effective concentrations (EC50) or half-maximal inhibitory concentrations were calculated (FIG. 7B).

The next assay deals with other hTAS2 receptors. Described as above. In kind it is cell-based, human. Particulars: 100 μM test substance; cognate agonists of Table 2.
Text: as §1
Calcium Imaging experiments were performed 24 h after transfection using a Fluorometric Imaging Plate Reader (FLIPR, Molecular Devices, Munich, Germany) as previously described (Bufe et al., supra). Taste active compounds were ordered from Sigma (Sigma-Aldrich, Taufkirchen, Germany). Absinthin, 3β hydroxy dihydro costunolide and 3β hydroxy pelenolide were kindly provided by Giovanni Appendino (Novara, Italy). […] Fluorescence signals after application of test substances were corrected for and normalized to background fluorescence (ΔF/F═(F−F0)/F0), and baseline noise was subtracted. […]

The target of a further assay is T2, hTAS2R14 (Homo sapiens, UniProt Q9NYV8).
T2 construct: expressed in transfected cells; host or cells: HEK293T cells stably expressing chimeric Gα16gust44, transient transfection
T2 sequence (Q9NYV8 1-317): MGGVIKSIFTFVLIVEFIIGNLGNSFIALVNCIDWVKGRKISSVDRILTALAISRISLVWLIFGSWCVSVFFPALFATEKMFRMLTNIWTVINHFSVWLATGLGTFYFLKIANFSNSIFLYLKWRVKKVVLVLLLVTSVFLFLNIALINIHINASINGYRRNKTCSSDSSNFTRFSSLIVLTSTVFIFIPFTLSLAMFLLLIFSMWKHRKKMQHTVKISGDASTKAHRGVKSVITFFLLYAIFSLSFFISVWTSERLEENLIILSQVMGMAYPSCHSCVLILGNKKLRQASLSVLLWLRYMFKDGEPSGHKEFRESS
Put plainly: calcium imaging (FLIPR), activation of hTAS2R-transfected HEK293T-Gα16gust44 cells. The class given is cell-based. The following applies: 100 μM test substance, bath application.
Text: as §1, §2
(§3) In a first series of experiments we tested the two sesquiterpene lactones 3β hydroxy dihydro costunolide (formula (I) in FIG. 1) and 3β hydroxy pelenolide (formula (II) in FIG. 1) for their ability to activate hTAS2 receptor-expressing HEK293T cells.
(§4) Signal amplitudes were comparatively small (FIG. 2C).

The target of a further assay is T3, hTAS2R10 (Homo sapiens, UniProt Q9NYW0).
T3 construct: expressed in transfected cells; host or cells: HEK293T cells stably expressing chimeric Gα16gust44, transient transfection
T3 sequence (Q9NYW0 1-307): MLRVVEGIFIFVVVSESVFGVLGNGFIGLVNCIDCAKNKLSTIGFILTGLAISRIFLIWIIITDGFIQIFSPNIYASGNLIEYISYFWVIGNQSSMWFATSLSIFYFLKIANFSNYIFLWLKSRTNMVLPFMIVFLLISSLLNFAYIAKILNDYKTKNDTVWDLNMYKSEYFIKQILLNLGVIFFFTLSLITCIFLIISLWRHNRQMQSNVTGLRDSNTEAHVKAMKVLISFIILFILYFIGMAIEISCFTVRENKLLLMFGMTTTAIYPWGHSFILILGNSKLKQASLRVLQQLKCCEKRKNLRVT
Described as above. Particulars: for calcium response of hTAS2R10-transfected cells: 100 μM test substance, bath application. In kind it is cell-based.
Text: as §1, §2, §3, §4

[1] abbreviates: agonist denatonium benzoate 300 μM.

As for `C/C1=C\C[C@H](O)/C(C)=C/[C@H]2OC(=O)[C@@H](C)C2CC1` (stereo partly drawn) [3β hydroxy dihydro costunolide], the “strychnine response amplitude at TAS2R46 with increasing inhibitor concentrations” value at hTAS2R46 (0, 10, 30, 100 μM inhibitor) is “largely unaffected”. For the same compound, on hTAS2R46 (100 μM inhibitor, P<0.05, one-way ANOVA), the “change of the strychnine EC50 value at hTAS2R46 on coapplication” value was “significant increase”. For the same compound, the “agonist-dependent response of hTAS2R46-expressing cells on coapplication” value at hTAS2R46 is given as “complete block”. Besides, the concentration for half-maximal inhibition (IC50) was found to be 14.1 ± 1.35 µM on hTAS2R46 (agonist absinthin 100 μM); 4.93 ± 0.54 µM at hTAS2R46 (agonist andrographolide 30 μM); 6.78 ± 2.33 µM at hTAS2R46 (setting [1]); 4.81 ± 1.43 µM on hTAS2R46 (agonist picrotoxinin 300 μM); 15.3 ± 5.85 µM on hTAS2R46 (agonist strychnine 3 μM). For the same compound, the “action on hTAS2R46-expressing cells (inhibition)” value at hTAS2R46 (presence of agonist strychnine 3 μM) was “antagonists”. In addition, on hTAS2R46 (strychnine concentration-response curves with 0, 10, 30, 100 μM inhibitor), the “mode of action of the inhibitor at TAS2R46” value is “competitive”. Moreover, the “agonist activation of cells expressing any of the other hTAS2Rs on coapplication” value in the assay with other hTAS2 receptors was “did not alter”. Also, the “calcium response of hTAS2R14-transfected cells” value on hTAS2R14 was “responded”. On hTAS2R10, the “calcium response of hTAS2R10-transfected cells” value is reported as “responded”. Further, at hTAS2R10 (concentration-response, intracellular calcium), the EC50 was found to be 25.2 ± 3.6 µM.
With `C/C1=C\C[C@H](O)[C@@H](C)C[C@H]2OC(=O)[C@@H](C)[C@@H]2CC1` [3β hydroxy pelenolide], the “agonist-dependent response of hTAS2R46-expressing cells on coapplication” value at hTAS2R46 is reported as “moderately attenuating effect”. Also, at hTAS2R46 (TAS2R46), the “fold higher concentration than 3β hydroxy dihydro costunolide to achieve 50% receptor inhibition” value is reported as ~6 fold. The IC50 on hTAS2R46 (agonist absinthin 100 μM) was found to be 57.8 ± 24.9 µM; on hTAS2R46 (agonist andrographolide 30 μM), 44.5 ± 34.5 µM; at hTAS2R46 (setting [1]) it was 51.4 ± 28.8 µM; on hTAS2R46 (agonist picrotoxinin 300 μM), 22.9 ± 3.4 µM; on hTAS2R46 (agonist strychnine 3 μM), 84.9 ± 50.2 µM. For the same compound, the “agonist activation of cells expressing any of the other hTAS2Rs on coapplication” value with other hTAS2 receptors was “not affected”. For the same compound, the “calcium response of hTAS2R14-transfected cells” value at hTAS2R14 is “displayed calcium signals”. Moreover, the “calcium response of hTAS2R10-transfected cells” value at hTAS2R10 was “displayed calcium signals”.

A word on the IC50: it is the midpoint of a concentration-inhibition curve. The term EC50 denotes the midpoint of the concentration-response curve.
